Data published in a melting point compilation (Tetko et al.; mined from patent text by program, amines drawn as free bases though some values may be those of a salt).

Compound	melting point [°C]
CC(C)c1cccc(C(C)C)c1NC(=O)NCC1(c2ccccc2)CC1	138 to 142
Cc1ccc(-c2c(N)oc3c(C(C)(C)C)cc(C(C)(C)C)cc23)cc1C	128 to 130
CC(C)(C)COC(=O)Cc1cccc2c(=O)cc(C3=CCCCC3)oc12	138 to 139
CNC(=O)c1cnc(Cl)c(Cl)c1	134 to 138
N#Cc1cn(C2OC(CO)C(O)C2O)c2ncn(O)c(=O)c12 (stereo unspecified)	229 to 231
CN(C)c1cccc2nc3cccc(C(=O)O)c3nc12	186 to 188
CC(CCCc1ccccc1)c1cc2c(cc1O)C1C(=O)CCCC1C(C)(C)O2 (stereo unspecified)	108 to 115
O=C1CCC2CCCC(CCC(=O)OCc3ccccc3)C2N1 (stereo unspecified)	101 to 102
Cc1ccc(S(=O)(=O)OC[C@H](O)CO)cc1	54 to 59
COc1ccc2c(c1)C(NC(C)C)=C(C(N)=O)S2=O (stereo unspecified)	194
Cc1nc(OC[C@@H]2COC(C)(C)O2)c(C#N)c(N2CCc3ccccc3CC2)n1	110 to 112
CC(C)(C)c1ccc(S(=O)(=O)N2c3ccccc3C[C@H]2C(=O)NCc2ccc(CCC(=O)O)cc2)cc1	80 to 85
CCOC(=O)Cn1c(=O)c(=O)[nH]c2cc(C(F)(F)F)c(-n3c(C)ccc3C)cc21	262 to 263
Cc1ccccc1NC(=O)/C=C/C=C/CC1CCc2c(cccc2C(F)(F)F)C1 (stereo unspecified)	171
CC(=O)SCC(C)C(=O)N(CC(=O)O)C1CCCCCC1 (stereo unspecified)	116 to 117
Cc1cc(C(F)(F)F)nc(N(C(N)=O)c2ccccc2C(F)(F)F)n1	150 to 153
O=[N+]([O-])c1cccc(Oc2cncc(Cl)n2)c1	118 to 119
CCCC1(C(=O)NCCN2CCC(N3Cc4ccccc4C3=O)CC2)c2ccccc2-c2ccccc21	219 to 221
O=C(O)CCCOc1ccc2nc3[nH]c(=O)[nH]c3cc2c1	> 320
CC(=O)Nc1ccc(-c2ccc3nc(-c4cccnc4N)n(-c4ccc(CNC(=O)c5ccccc5)cc4)c3n2)cc1	299 to 300
Cc1c(NC(=O)c2cc3c(s2)CCCC3)cccc1-c1cn(C)c(=O)c(Nc2ccc(C3C(=O)N(C)CCN3C)cc2)n1 (stereo unspecified)	155 to 156
COc1ccc(-n2nc(C(F)F)cc2-c2ccc(S(C)(=O)=O)cc2)cc1F	185 to 186
COc1ccc2ccc(N3C(=O)c4ccccc4C3OCc3cccnc3)nc2n1 (stereo unspecified)	175
CCOC(=O)C(=CN(CC)c1cccs1)C(=O)OCC	41 to 42
COC(=O)NC1=NCC(c2ccccc2)N1C (stereo unspecified)	145 to 147

Compound	melting point [°C]
CN(CCCCCNC(=NCCSCc1csc(NC(=N)N)n1)NC#N)CCN(Cc1ccc(F)cc1)c1ccccn1	103
O=C(O)c1ccc2c(c1)nc(-c1ccc(Oc3cccc(Br)c3)cc1)n2C1CCCCC1	255 to 256
CN1CCC2(c3ccccc3)OC2C1 (stereo unspecified)	44 to 45
CCc1ncnc(N[C@H]2CS[C@@H](c3ccc(C)cc3)SC2)c1Cl	138 to 139
O=C(O)c1ccnc(-c2cccc3oc(Cc4cccc(C(F)(F)F)c4)cc23)c1	187 to 188
COc1ccc(C(Cc2ccncc2)c2ccc(C(N)=O)cc2)cc1OC1CCCC1 (stereo unspecified)	180 to 182
COc1ccc(C=CCCl)cc1	70 to 72
Cc1nccn1C(C)CC(O)(c1ccccc1)c1ccccc1 (stereo unspecified)	168 to 169
COc1ccc(SCCCCN2C(=O)c3ccccc3C2=O)cc1	61 to 62
CC(NCC#N)C(O)(Cn1cncn1)c1ccc(F)cc1F (stereo unspecified)	138 to 139
CCOC(=O)C1=C(CS(=O)c2ccccc2)Nc2ccnc(OC(C)C)c2C1c1ccccc1C(F)(F)F (stereo unspecified)	206 to 208
CC1C(=O)C2CC(=O)N2C1C(=O)OC(c1ccccc1)c1ccccc1 (stereo unspecified)	132 to 133
CC(=CC1=NCCC1)N(C)C1CCCCC1	152 to 153
O=c1oc(-c2ccccc2)cc(O)c1C(SCc1ccccc1)c1ccccc1 (stereo unspecified)	189 to 191
O=C(O)C1(CCCCCCCCCCCCC2(C(=O)NC3CC3)CC2)CC1	95.3 to 97.7
COC(=O)c1ccc2c(c1)C(SCCI)c1ccccc1CO2 (stereo unspecified)	111 to 113
Cn1c(CC(=O)O)c(-c2ccccc2)c2cc(Cl)ccc21	141 to 142
CC(C)Cn1cnc2c(N)nc3cnccc3c21	306 to 307
COc1nccc(C)c1NC(=O)OC(C)(C)C	93 to 95
CCOCc1nc2c(N)nc3c(c2n1CCCNS(C)(=O)=O)CCCC3	212 to 214
CC(C)c1nc(COCc2ccccc2)n(Cc2ccccc2)c1Sc1cccc(Cl)c1	120 to 122
Cn1c2ccc(Br)cc2c2cc(Br)cc([N+](=O)[O-])c21	221
CC(C)=CCc1c(O)n2c3c(nc2n(Cc2ccccc2)c1=O)N(C)CN(C)C3=O	153 to 154
CC(=O)c1ccc(N2CCN(C(=O)c3c(Cl)ccc([N+](=O)[O-])c3Cl)CC2)c(F)c1	209 to 211

Further lines, results first:

melting point [°C]	Compound
162	CCOC(=O)c1cccn1CCN1CCC(=C2c3ccn(C)c3CCn3ccnc32)CC1
89 to 91	CCOC(=O)C(C#N)(CCCN(C)CCc1cccc(C(=O)OC)c1)c1ccc(OC)c(OC)c1 (stereo unspecified)
177 to 179	CS(=O)(=O)c1ccc(-c2cc(=O)n(CC(F)(F)F)nc2-c2ccc(F)cc2)cc1
224 to 226	Cc1cc(N)n(C(=NO)c2cccc([N+](=O)[O-])c2)n1
177 to 178	OCc1cc(C=CCN2Cc3ccccc3C2)ccc1O
158 to 159	C[C@@H](NC(=O)[C@@H](NC(=O)OCc1ccccc1)C(Cc1ccccc1)C(=O)O)C(=O)O (stereo partly specified)
142 to 144	Cc1ccsc1C(Cc1ccccc1O)N(C)C=O (stereo unspecified)
239 to 240	COc1ccc(Cn2c(N)cc(=O)[nH]c2=S)cc1OCc1ccccc1
149 to 152	CC(=O)NC[C@H]1CN(c2ccc(C3=CCN(C=O)CC3)cc2)C(=O)O1
56 to 57	COCOc1cccc2cccc(C=O)c12
61 to 62	CC(c1c[nH]c([N+](=O)[O-])n1)N1CCCCC1 (stereo unspecified)
235 to 236	Cc1cc(Nc2cc(Cl)nc(-c3ccccc3)n2)[nH]n1
87	O=c1[nH]c(=O)n(C2CC(F)C(CO)O2)cc1C(Cl)=CI (stereo unspecified)
96 to 99	CC(C)CC(=O)Nc1cccc(-c2ccnc3c(-c4cccc5cccnc45)cnn23)c1
111 to 114	CCC(CC)n1c(=O)ccc2cnc(S(C)=O)nc21 (stereo unspecified)
110 to 112	COc1ccc(-c2nc(C#N)oc2-c2ccc(OC)cc2)cc1
70 to 71	O=C(NCCCc1cccc2oc(CCCCc3ccccc3)cc12)C1CC1
193 to 194	CN(c1cccc2cc(C3=NCC(CN4CCS(=O)CC4)S3)[nH]c12)S(=O)(=O)c1ccccn1 (stereo unspecified)
190 to 191	CCOC(=O)c1nc(-c2ccc(C(C)(C)C)cc2)[nH]c1-c1ccc([N+](=O)[O-])cc1
143 to 145	C=Cc1cc(C=Cc2cc(C(C)(C)C)cc(C(C)(C)C)c2)cc(C=Cc2cc(C(C)(C)C)cc(C(C)(C)C)c2)c1
117 to 119	O=c1cc(-c2ccncn2)nc2n1CCCCC2Br (racemic)
128 to 132	CCOC(=O)c1ccc(NC(=N)c2ccc(OC)cc2)cc1
